The source made the active and inactive calls.
Tests used:
[1] = target: Bcl-2-like protein 10 (Homo sapiens, UniProt Q9HD36); assay: displacers of TR3 peptide from Bcl-B, primary screen, selectivity assay for Bfl-1 inhibitor project, biochemical, fluorescence polarization, FITC-TR3 peptide (AID 748);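 further: fluorescence polarization from a fluorescein-labelled TR3 peptide binding purified Bcl-B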
[2] = target: T1, Estrogen receptor beta (Homo sapiens, UniProt Q92731);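 further: recombinant ER-beta bound to coactivator SRC1 peptide in presence of estradiol agonist; inhibitors block coactivator peptide binding and lower the FRET signal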
[3] = target: T1, Estrogen receptor beta; assay: ERβ–SRC-3 coactivator interaction inhibitors, confirmation, orthogonal assay, biochemical, ELISA, streptavidin-HRP readout (AID 1060)
[4] = target: Polyadenylate-binding protein 1 (Homo sapiens, UniProt P11940); assay: PABP poly(A) RNA binding inhibitors, primary screen, biochemical, fluorescence polarization, uHTS (AID 2014)
[5] = target: Eukaryotic translation initiation factor 4H (Homo sapiens, UniProt Q15056); assay: human eIF4H binding inhibitors, primary screen, translation initiation inhibitor project, biochemical, uHTS, fluorescence polarization (AID 2012)
[6] = tested on: HeLa; assay: HeLa cell cytotoxicity, dose response, cytotoxicity control, 24 h, cherry-picked samples (AID 504726); format: functional, cell-based; conditions: Homo sapiens;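 further: potency for cytotoxicity as loss of luminescence signal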
[7] = cells; format: functional, cell-based
[8] = target: Large T antigen (Simian virus 40, UniProt P03070); format: functional, Betapolyomavirus macacae;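 further: Confirmatory-stage PubChem screen for compounds that inhibit SV40 T antigen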
[9] = target: T2, RNA-binding protein pos-1 (Caenorhabditis elegans, UniProt G5EF15); assay: inhibitors of POS-1/mex-3 RNA binding, dose response, biochemical, fluorescence polarization (AID 1964);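 further: purified POS-1 fused to maltose binding protein made in E. coli; potency of compounds blocking POS-1 binding to fluorescent RNA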
T2 sequence (G5EF15 whole entry): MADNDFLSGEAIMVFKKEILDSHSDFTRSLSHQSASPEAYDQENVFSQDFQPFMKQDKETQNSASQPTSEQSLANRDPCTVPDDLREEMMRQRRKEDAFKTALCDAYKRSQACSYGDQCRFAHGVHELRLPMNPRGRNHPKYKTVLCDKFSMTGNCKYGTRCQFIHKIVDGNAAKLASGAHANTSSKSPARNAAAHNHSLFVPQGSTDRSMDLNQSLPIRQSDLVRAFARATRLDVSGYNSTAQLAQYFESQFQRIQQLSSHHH

[10] = target: T3, Zinc finger protein mex-5 (Caenorhabditis elegans, UniProt Q9XUB2); assay: MEX-5/TCR-2 RNA interaction inhibitors, dose response, biochemical, C. elegans, fluorescence polarization (AID 1960)
T3 sequence (Q9XUB2 whole entry): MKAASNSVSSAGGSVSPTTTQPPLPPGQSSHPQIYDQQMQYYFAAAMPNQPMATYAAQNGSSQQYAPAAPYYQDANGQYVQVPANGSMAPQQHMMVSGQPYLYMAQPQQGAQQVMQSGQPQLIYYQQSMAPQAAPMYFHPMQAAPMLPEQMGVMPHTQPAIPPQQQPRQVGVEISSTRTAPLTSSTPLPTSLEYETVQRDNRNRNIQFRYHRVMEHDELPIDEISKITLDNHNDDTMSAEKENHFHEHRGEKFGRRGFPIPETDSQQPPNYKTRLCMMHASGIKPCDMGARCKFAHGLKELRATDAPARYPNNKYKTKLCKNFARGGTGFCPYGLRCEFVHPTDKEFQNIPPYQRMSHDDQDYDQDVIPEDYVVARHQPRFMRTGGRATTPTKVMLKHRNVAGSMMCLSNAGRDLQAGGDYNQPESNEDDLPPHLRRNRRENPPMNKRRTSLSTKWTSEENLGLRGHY

[11] = target: 5-hydroxytryptamine receptor 2A (Mus musculus, UniProt P35363); format: functional, cell-based;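 further: CHO-K1 cells with tagged receptor and beta-arrestin; agonist potency measured as compound-induced activation of the receptor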
[12] = target: Mu-type opioid receptor (Homo sapiens, UniProt P35372); format: functional, cell-based;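 further: U2OS cells with beta-arrestin recruitment to OPRM1 by beta-gal complementation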
[13] = target: Aspartyl aminopeptidase (Plasmodium falciparum 3D7, UniProt Q8I2J3)
[14] = target: Procathepsin L (Homo sapiens, UniProt P07711)
[15] = target: FAD-linked sulfhydryl oxidase ALR (Homo sapiens, UniProt P55789); assay: inhibitors of human ALR sulfhydryl oxidase, dose response, biochemical, H2O2 detection, luminescence, cherry-pick (AID 493248)
[16] = target: T4, DNA repair and recombination protein RAD54-like (Homo sapiens, UniProt Q92698); assay: inhibitors of human RAD54 branch migration, confirmation, biochemical, fluorescence, cherry-picked samples, dose series (AID 651657); format: functional
T4 sequence (Q92698 whole entry): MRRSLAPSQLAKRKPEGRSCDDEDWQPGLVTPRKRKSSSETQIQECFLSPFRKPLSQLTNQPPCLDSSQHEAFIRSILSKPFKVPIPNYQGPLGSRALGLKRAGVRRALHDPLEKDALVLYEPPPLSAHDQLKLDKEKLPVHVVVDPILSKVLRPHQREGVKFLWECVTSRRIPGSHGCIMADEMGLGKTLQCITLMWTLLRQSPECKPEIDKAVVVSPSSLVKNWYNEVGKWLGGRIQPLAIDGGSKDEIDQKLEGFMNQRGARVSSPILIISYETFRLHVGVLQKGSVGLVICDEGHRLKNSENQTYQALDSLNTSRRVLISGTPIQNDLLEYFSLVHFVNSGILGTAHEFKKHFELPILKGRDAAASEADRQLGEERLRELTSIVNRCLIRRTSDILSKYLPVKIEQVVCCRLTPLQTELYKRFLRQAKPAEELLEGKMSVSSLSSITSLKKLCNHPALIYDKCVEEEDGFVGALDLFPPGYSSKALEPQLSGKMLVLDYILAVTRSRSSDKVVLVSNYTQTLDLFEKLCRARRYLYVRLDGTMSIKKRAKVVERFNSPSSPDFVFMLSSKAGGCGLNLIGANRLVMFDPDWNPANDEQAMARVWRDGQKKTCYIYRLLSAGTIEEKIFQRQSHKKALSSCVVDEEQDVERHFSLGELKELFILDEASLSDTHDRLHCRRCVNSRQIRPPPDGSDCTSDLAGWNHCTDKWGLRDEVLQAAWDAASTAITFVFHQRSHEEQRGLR

[17] = cells; format: functional, cell-based; remark: listed apart in the source
[18] = target: Neurotensin receptor type 1 (Homo sapiens, UniProt P30989); format: functional;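 further: Image-based confirmatory dose-response assay measuring agonist activity at NTR1; NTR1-expressing U2OS osteosarcoma cells imaged for beta-arrestin GFP spot formation; agonist potency where compounds increase beta-arrestin recruitment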
[19] = cytotoxicity toward NIH3T3 fibroblasts, dose response, counter-screen, cell-based, ATP luminescence, mouse fibroblasts (AID 2010); format: functional;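 further: cells exposed to compound for about 90 hours before reading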
[20] = MDA-MB-231 cell growth inhibition, dose response, cytotoxicity control for RAD54 inhibitor project, CellTiter-Glo luminescence, cherry-pick (AID 651692); format: functional, cell-based
[21] = HEK293T cytotoxicity, dose response, cytotoxicity control for miR-122 modulator project, cell-based, activator set, cherry-pick (AID 720690); format: functional;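 further: HEK293T human cells scored for general mammalian cytotoxicity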
[22] = target: Melanocortin receptor 4 (Homo sapiens, UniProt P32245); format: functional, cell-based;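 further: Cell-based assay with luminescence read-out, confirmatory dose-response testing for agonist activity of biased ligands at MC4R; human U2OS cells with tagged receptor and beta-arrestin; potency of agonists that increase receptor coupling to beta-arrestin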
[23] = inhibitors of intracellular T. cruzi replication, confirmation, NIH3T3 host cells, beta-gal luminescence (AID 2044); format: functional, cell-based;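 further: intracellular parasites grown in NIH/3T3 mouse fibroblasts as host cells; luminescent beta-galactosidase reporter signal from transgenic T. cruzi replicating inside host cells; inhibitors lower the luminescence signal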
[24] = tested on: INS1; assay: beta cell apoptosis inhibitors, cytokine rescue, dose response, luminescence, retest (AID 449756); format: functional, cell-based; conditions: Rattus norvegicus;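 further: cell death triggered by IL-1 beta plus TNF-alpha plus IFN-gamma mixture; protective hits raise ATP signal compared with cytokine alone wells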
[25] = target: T5, Dual specificity protein phosphatase 3 (Homo sapiens, UniProt P51452); assay: MOA VHR1 Fluorescent secondary assay for identification of redox-state modulating compounds. [Related pubchem assays (depositor defined):AID1654, AID1661, AID1878, AID1957]
[26] = target: T5, Dual specificity protein phosphatase 3; assay: SAR VHR1 Fluorescent Assay for In Vitro dose response studies. [Related pubchem assays (depositor defined):AID1654, AID1661, AID1878, AID1992, AID2004, AID2070, AID2085]; format: functional
[27] = target: T6, Dual specificity protein phosphatase 6 (Rattus norvegicus, UniProt Q64346); format: functional
T6 sequence (Q64346 whole entry): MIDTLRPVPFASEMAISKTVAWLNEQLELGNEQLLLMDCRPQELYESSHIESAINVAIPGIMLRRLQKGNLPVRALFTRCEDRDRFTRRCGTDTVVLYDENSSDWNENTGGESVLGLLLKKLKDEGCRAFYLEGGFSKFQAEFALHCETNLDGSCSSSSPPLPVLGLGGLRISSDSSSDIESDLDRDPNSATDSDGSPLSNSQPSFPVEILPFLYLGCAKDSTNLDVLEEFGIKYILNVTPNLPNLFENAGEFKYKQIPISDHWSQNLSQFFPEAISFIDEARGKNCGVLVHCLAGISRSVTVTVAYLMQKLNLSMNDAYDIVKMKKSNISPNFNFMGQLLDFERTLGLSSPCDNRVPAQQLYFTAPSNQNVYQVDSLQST

[28] = target: Glyceraldehyde-3-phosphate dehydrogenase (Homo sapiens, UniProt P04406)
[29] = target: T6, Dual specificity protein phosphatase 6
[30] = target: T7, Tyrosine-protein phosphatase non-receptor type 7 (Homo sapiens, UniProt P35236); assay: redox-dependent HePTP inhibition, mechanism study, biochemical, fluorescence (AID 2068); format: functional
T7 sequence (P35236 whole entry): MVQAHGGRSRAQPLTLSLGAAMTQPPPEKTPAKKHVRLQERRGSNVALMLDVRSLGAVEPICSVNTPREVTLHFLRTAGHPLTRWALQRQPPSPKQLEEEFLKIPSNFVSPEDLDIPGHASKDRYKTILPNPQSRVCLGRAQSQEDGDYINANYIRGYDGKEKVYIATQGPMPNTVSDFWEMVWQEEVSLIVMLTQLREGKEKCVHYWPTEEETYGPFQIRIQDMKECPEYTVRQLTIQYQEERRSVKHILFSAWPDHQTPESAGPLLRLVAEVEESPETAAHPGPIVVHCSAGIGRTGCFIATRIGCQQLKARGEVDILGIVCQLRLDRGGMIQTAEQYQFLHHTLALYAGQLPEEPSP

[31] = target: T7, Tyrosine-protein phosphatase non-receptor type 7; format: functional
[32] = target: T8, Streptokinase A (Streptococcus pyogenes serotype M1, UniProt P10520); assay: S. pyogenes streptokinase expression inhibitors, potency, dose response, plasminogen activation absorbance, OD405 (AID 1914); format: functional, Streptococcus pyogenes M1 GAS;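 further: secreted streptokinase activity via plasminogen activation per viability signal from cell pellet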
T8 sequence (P10520 whole entry): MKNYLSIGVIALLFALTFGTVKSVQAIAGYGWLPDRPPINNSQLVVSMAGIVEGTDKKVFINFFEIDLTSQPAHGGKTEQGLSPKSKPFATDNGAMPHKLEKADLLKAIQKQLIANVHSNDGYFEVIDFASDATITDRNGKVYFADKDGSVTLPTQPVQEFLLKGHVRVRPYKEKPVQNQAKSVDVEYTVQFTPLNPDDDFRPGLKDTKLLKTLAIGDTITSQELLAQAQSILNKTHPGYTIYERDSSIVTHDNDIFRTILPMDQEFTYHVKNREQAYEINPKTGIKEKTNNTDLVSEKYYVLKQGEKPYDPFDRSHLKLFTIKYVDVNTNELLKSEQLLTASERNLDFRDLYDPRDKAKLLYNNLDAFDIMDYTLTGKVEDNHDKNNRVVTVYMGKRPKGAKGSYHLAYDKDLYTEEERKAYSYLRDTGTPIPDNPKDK

[33] = target: Scavenger receptor class B member 1 (Mus musculus, UniProt Q61009); assay: inhibitors of SR-BI mediated HDL lipid uptake, dose response, ldlA[mSR-BI] cells, fluorescence, cherry pick (AID 493194); format: functional, cell-based;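 further: cellular uptake of fluorescent DiI-labeled HDL measured as cell fluorescence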
[34] = tested on: Streptococcus sp. 'group A'; assay: growth inhibition of control SK(-) GAS strain, dose response, counter-screen for streptokinase expression inhibitor project, luminescence, kanamycin, BacTiterGlo, confirmation (AID 1900); format: functional, organism-based
[35] = growth suppression of PTEN-null colon cells, dose response, cell-based, HCT116 PTEN knockout (AID 1047); format: functional;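 further: HCT116 colon tumor cells with PTEN knocked out; cells exposed to compound for 60 hours before readout; potency for loss of cell viability measured by luminescence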
[36] = tested on: Streptococcus; assay: Group A Streptococcus viability loss, dose response, counter-screen for streptokinase expression inhibitor project, luminescence, BacTiterGlo (AID 1915); format: functional, organism-based;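 further: potency for reduction of bacterial viability or growth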
[37] = growth suppression of beta-catenin-knockout colon cells, dose response, cell-based, HCT116, human colon tumor (AID 1045); format: functional;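 further: HCT116 colon tumor cells with beta catenin knocked out; cells exposed to compound for 60 hours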
[38] = target: Neuropeptides B/W receptor type 1 (Homo sapiens, UniProt P48145); assay: Fluorescence-based dose response cell-based high throughput screening assay to identify antagonists of the G-protein coupled receptor 7 (GPR7). [Related pubchem assays: 1952 (Screening assay (GPR7 antagonists).), 1880 (Summary AID.)]; format: functional
[39] = target: Melanin-concentrating hormone receptor 1 (Homo sapiens, UniProt Q99705); assay: Fluorescence-based counterscreen for antagonists of the G-protein coupled receptor 7 (GPR7): cell-based high throughput dose response assay to identify antagonists of the melanin-concentrating hormone receptor 1 (MCHR1).; format: functional
Melanin-concentrating hormone receptor 1, sequence (Q99705 whole entry): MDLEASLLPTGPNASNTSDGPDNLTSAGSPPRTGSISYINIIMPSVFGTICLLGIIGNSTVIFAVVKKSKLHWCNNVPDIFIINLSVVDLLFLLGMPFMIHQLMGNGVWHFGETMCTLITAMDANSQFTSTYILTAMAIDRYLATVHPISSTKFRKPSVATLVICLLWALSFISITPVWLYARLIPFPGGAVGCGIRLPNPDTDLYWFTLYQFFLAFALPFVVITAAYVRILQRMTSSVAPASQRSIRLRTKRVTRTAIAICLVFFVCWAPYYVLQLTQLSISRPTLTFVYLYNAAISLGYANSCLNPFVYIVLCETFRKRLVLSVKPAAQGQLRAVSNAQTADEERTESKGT

T5 sequence (P51452 whole entry): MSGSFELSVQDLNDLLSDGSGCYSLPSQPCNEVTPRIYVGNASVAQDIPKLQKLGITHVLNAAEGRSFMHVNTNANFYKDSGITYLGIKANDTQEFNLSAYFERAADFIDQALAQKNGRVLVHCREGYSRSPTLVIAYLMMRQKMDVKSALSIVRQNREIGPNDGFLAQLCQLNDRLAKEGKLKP
T1 sequence (Q92731 whole entry): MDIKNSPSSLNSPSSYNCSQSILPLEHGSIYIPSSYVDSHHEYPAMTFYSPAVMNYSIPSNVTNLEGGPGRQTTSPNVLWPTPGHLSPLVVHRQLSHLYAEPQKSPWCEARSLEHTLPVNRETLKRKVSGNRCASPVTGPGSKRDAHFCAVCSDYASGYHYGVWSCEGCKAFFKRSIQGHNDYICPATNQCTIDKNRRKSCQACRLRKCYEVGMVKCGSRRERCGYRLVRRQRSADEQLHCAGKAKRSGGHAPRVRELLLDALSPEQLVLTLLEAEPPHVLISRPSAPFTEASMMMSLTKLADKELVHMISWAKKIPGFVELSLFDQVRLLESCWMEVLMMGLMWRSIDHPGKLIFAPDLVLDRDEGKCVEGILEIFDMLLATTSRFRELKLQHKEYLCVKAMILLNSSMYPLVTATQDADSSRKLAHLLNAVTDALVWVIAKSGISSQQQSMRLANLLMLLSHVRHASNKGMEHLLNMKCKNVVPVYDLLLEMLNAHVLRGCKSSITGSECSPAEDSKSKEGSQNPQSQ
Glyceraldehyde-3-phosphate dehydrogenase, sequence (P04406 whole entry): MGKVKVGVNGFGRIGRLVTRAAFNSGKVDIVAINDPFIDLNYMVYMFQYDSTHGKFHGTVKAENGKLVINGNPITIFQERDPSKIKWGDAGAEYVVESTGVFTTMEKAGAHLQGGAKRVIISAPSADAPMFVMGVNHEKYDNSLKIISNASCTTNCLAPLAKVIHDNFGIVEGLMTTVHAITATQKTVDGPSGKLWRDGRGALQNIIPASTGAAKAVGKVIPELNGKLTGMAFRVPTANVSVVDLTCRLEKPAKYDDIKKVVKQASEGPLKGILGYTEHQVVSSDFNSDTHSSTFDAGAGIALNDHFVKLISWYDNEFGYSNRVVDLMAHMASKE
Bcl-2-like protein 10, sequence (Q9HD36 whole entry): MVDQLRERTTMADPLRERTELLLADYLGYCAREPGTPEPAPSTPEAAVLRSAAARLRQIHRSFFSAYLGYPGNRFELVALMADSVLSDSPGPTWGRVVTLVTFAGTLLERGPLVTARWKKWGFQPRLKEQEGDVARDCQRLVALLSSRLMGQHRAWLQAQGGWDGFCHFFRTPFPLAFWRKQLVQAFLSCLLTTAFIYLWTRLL
Scavenger receptor class B member 1, sequence (Q61009 whole entry): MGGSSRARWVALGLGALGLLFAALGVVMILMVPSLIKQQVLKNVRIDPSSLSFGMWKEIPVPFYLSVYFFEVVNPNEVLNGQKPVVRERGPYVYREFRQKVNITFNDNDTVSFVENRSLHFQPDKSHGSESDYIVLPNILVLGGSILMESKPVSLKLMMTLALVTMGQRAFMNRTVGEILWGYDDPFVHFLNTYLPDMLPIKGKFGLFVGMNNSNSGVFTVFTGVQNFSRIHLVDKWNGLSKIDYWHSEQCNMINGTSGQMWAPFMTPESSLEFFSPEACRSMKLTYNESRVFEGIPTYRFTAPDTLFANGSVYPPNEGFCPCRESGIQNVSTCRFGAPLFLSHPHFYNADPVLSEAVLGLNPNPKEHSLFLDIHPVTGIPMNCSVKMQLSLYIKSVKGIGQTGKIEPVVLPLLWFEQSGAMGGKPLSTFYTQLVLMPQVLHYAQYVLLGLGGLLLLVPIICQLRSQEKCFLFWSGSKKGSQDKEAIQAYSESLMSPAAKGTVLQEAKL
Neurotensin receptor type 1, sequence (P30989 whole entry): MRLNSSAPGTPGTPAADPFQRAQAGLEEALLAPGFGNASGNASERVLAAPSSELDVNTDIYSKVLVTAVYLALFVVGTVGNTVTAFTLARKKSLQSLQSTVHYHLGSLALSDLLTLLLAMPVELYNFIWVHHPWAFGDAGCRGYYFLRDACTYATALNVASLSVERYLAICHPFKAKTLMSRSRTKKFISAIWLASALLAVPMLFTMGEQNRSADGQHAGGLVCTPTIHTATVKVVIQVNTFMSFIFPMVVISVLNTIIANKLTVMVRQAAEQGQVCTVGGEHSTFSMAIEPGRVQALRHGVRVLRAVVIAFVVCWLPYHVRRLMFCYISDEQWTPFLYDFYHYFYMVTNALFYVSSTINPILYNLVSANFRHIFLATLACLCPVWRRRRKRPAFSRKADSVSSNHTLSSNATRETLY
Mu-type opioid receptor, sequence (P35372 whole entry): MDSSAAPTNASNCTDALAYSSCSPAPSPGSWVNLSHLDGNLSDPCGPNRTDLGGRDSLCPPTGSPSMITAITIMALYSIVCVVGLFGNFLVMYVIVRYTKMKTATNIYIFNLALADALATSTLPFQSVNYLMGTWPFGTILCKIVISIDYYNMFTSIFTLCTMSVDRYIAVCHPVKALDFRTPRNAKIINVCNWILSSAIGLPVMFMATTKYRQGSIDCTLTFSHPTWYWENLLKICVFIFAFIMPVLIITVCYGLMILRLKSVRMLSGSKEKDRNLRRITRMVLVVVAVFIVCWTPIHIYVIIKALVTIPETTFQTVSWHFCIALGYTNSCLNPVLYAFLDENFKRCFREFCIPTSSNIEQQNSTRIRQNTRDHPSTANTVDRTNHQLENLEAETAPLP
Aspartyl aminopeptidase, sequence (Q8I2J3 whole entry): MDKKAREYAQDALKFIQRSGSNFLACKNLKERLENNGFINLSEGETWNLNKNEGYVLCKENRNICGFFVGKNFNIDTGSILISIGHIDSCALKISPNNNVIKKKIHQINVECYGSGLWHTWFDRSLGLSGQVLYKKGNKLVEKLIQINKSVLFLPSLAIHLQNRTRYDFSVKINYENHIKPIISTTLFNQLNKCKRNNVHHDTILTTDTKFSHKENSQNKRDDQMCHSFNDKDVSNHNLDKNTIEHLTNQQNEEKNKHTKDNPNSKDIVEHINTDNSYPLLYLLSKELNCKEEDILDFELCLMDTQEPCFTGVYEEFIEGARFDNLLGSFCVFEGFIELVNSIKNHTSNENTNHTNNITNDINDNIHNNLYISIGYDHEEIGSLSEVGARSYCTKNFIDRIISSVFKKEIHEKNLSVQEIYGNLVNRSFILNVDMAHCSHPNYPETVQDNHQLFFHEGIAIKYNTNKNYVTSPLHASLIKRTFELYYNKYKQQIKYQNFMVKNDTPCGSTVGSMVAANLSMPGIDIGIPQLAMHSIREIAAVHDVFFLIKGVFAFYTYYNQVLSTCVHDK
Procathepsin L, sequence (P07711 whole entry): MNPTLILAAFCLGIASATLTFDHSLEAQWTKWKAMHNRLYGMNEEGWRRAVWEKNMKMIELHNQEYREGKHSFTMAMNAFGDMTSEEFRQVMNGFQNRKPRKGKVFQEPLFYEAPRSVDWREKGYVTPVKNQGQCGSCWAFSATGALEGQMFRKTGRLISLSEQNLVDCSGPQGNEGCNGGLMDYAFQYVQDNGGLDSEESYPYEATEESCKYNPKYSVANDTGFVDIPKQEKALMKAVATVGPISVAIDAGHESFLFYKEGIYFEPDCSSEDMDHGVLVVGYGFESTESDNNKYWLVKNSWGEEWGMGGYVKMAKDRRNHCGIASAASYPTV
FAD-linked sulfhydryl oxidase ALR, sequence (P55789 whole entry): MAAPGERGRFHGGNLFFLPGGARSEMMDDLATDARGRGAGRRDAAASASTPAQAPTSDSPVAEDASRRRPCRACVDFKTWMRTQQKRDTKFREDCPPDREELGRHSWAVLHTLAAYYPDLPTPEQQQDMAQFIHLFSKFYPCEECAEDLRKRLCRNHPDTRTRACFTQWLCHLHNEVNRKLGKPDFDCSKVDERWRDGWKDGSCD
5-hydroxytryptamine receptor 2A, sequence (P35363 whole entry): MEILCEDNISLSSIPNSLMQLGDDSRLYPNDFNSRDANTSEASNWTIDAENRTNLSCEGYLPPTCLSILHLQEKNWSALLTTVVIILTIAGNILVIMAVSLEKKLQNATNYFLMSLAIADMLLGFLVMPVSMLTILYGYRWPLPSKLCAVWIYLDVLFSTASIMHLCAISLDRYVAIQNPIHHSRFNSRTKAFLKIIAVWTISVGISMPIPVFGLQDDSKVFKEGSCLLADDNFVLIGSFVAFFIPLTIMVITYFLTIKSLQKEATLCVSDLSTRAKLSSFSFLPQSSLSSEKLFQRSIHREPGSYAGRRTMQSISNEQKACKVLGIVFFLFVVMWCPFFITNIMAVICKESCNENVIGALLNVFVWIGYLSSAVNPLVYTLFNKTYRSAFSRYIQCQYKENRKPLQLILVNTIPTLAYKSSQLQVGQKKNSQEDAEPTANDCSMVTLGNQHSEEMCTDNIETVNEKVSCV

CCOc1ccc2[nH]c(=O)c(=O)[nH]c2c1
IC50 [1]: > 50 µM (inactive) | IC50 [2]: > 50 µM (not active) | IC50 [3]: 12.2 µM (not active)

CCc1ccc(NS(=O)(=O)c2ccc(C)c(C(=O)N3CCOCC3)c2)cc1
IC50 [4]: 6.21 µM (active) | IC50 [5]: > 100 µM (inactive)

COC(=O)c1ccc(Oc2nc(Nc3ccc(F)cc3)nc(N3CCCC3)n2)cc1
AC50 [6]: 289 µM (active)

Oc1ccc(CCNc2c3ccccc3nc3ccccc23)cc1O
EC50 [7]: > 350 µM (not active) | IC50 [8]: 8.41 µM (active) | EC50 [9]: > 300 µM (not active) | EC50 [10]: 10.1 µM (active) | EC50 [11]: 76.1 µM (inactive) | EC50 [12]: 92.5 µM (inactive) | IC50 [13]: 2.49 µM (active) | IC50 [14]: > 59.6 µM (not active) | AC50 [15]: 2.76 µM (active) | AC50 [16]: 1.87 µM (active) | EC50 [17]: > 350 µM (not active)

Cc1cc(C)cc(OCC(O)CN2CCC(CN3C(=O)c4cccc5cccc(c45)C3=O)CC2)c1 (stereo not given)
EC50 [18]: 18.6 µM (active) | EC50 [19]: 9.92 µM (active) | AC50 [20]: 23.6 µM (active) | AC50 [21]: 15.9 µM (active) | EC50 [22]: > 89.2 µM (inactive) | EC50 [23]: 1.82 µM (active) | AC50 [16]: 7.63 µM (active) | AC50 [24]: 5.59 µM (active)

O=c1/c(=C/c2ccc(-c3cc(Cl)cc(Cl)c3)o2)sc2nc3cc(Br)cnc3n12
IC50 [25]: 2.23 µM (active) | IC50 [26]: 8.81 µM (active) | IC50 [27]: > 100 µM (inactive) | IC50 [28]: > 100 µM (not active) | IC50 [29]: > 100 µM (inactive) | IC50 [30]: 1.15 µM (active) | IC50 [31]: > 100 µM (not active)

COc1ccc(-c2nc(-c3ccc4c(c3)OCO4)[nH]c2-c2ccc(OC)cc2)cc1
EC50 [32]: 2.07 µM (active) | AC50 [33]: 18.1 µM (active) | EC50 [34]: 2.62 µM (active) | EC50 [35]: 16.7 µM (active) | EC50 [36]: > 150 µM (not active) | EC50 [37]: 19.2 µM (active)

Clc1ccc(CN(Cc2ccc(Cl)cc2)c2nnn[nH]2)cc1
IC50 [38]: > 14.6 µM (not active) | IC50 [39]: > 14.6 µM (not active)
